Experimental data taken from US7208154B2, “Methods and compositions for the treatment of MHC-associated conditions” (Regents of the University of Michigan, priority 2002, dated 2007).

Columns and labels:
calreticulin [1] = assay: Calreticulin cell surface expression in M1 cells (Western-blot, flow cytometry); type: cell-based, human; conditions: 0.2 μM oligonucleotide, 24 to 48 hr, Lipofectin
Experimental: (§1) M1 cells were cultured in 6-well plate to 60–70% confluency. M1 cells were treated by 0.2 μM antisense oligonucleotide for 24 to 48 hr, using Lipofectin as a carrier. Calreticulin expression levels were determined by Western-blot and flow cytometry, using anti-calreticulin antibodies. Polyclonal rabbit anti-human calreticulin antibodies were obtained from ABR, Golden, CO.

calreticulin [2] = molecular target: T1, calreticulin (Homo sapiens, UniProt P27797); assay: Blocking of shared epitope peptide-triggered signaling (cAMP-inhibitory effect, genoprotection) in M1 cells; type: cell-based; set-up: endogenous in cells; host or cells: M1 human fibroblastoid cells; conditions: M1 cells pre-incubated or transfected
T1 sequence (P27797 18-417): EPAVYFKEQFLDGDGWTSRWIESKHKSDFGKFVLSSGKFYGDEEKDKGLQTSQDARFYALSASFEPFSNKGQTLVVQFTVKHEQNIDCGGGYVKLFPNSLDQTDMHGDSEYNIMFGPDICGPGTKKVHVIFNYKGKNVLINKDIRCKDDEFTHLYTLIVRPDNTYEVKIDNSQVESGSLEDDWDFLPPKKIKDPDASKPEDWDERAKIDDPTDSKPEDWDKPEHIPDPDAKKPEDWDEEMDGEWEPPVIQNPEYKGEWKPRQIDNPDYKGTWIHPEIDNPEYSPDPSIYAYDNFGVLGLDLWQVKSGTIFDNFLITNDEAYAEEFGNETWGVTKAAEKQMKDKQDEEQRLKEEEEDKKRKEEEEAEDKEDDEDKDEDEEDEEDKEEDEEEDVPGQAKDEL
Experimental: Finally, in order to determine whether these neuroprotective peptides transduce their signaling through calreticulin, two complementing protocols were executed: i) Inhibition of peptide-calreticulin interaction using anti-calreticulin antibodies, or ii) blocking calreticulin expression with antisense oligonucleotides (as shown in FIG. 13C and FIG. 13D).
as §1

5′-GGATAGCAGCATGGCGGGCCG-3′ (listed as DNA, chemistry not given here) [calreticulin antisense oligonucleotides, calreticulin antisense oligonucleotide synthesized by Operon]
Inhibition of calreticulin cell surface expression (calreticulin [1]): inhibited cell surface expression
Block of shared epitope peptide-triggered signaling / inhibitory effect on genoprotection (calreticulin [2]): blocked peptide-triggered signaling
